Test results as given in patent publication US10045983B2, “Heteroaryl pyridone and aza-pyrodine compounds” (Genentech, Inc., priority 2011, dated 2018).
Read-outs that look alike come from different tables or passages of the source.

Experiment: CD69 Whole Blood Assay (CD69 Hu Blood FACS)
Assay type: cell-based, human
Settings: Lymphocyte, human whole blood, anti-IgM activated B lymphocytes, FACS, IC70
Description: A CD69 Whole Blood Assay can be conducted on Formula I compounds to determine the ability of compounds to inhibit the production of CD69 by B lymphocytes in human whole blood activated by crosslinking surface IgM with goat F(ab′)2 anti-human IgM (Example 907). CD69 is a type II C-type lectin involved in lymphocyte migration and cytokine secretion. CD69 expression represents one of the earliest available indicators of leukocyte activation and its rapid induction occurs through transcriptional activation (Vazquez et al (2009) Jour. of Immunology Published Oct. 19, 2009, doi:10.4049/jimmunol.0900839). Concentration-dependent inhibition of antigen receptor stimulation by selective Btk inhibitors induces cell surface expression of the lymphocyte activation marker CD69 (Honigberg et al (2010) Proc. Natl. Acad. Sci. 107(29):13075-13080). Thus, CD69 inhibition by selective Btk inhibitors may be correlated with therapeutic efficacy of certain B-cell disorders.

[1] = Table 1, read-out: CD69 Hu Blood FACS IC70
[2] = Table 2 (unit inferred), read-out: CD69 Hu Blood FACS (IC70)

Row | SMILES | IC70 [1] | IC70 [2]
1 | C[C@H]1CN(C2COC2)CCN1c1ccc(Nc2cc(-c3ccnc(N4CCc5c(cc6n5CCCC6)C4=O)c3CO)cn(C)c2=O)nc1 [Example 149, 2-{3′-Hydroxymethyl-1-methyl-5-[5-((S)-2-methyl-4-oxetan-3-yl-piperazin-1-yl)-pyridin-2-ylamino]-6-oxo-1,6-dihydro-[3,4′]bipyridinyl-2′-yl}-2,3,5,6,7,8-hexahydro-4H-2,4b-diaza-fluoren-1-one] | 0.0454 µM | –
2 | CN1CCN(C)[C@H](c2ccc(Nc3nc(-c4ccnc(N5CCn6c(cc7c6CCCC7)C5=O)c4CO)cn(C)c3=O)cc2)C1=O [Example 114, (R)-2-(4-(6-(4-(1,4-dimethyl-3-oxopiperazin-2-yl)phenylamino)-4-methyl-5-oxo-4,5-dihydropyrazin-2-yl)-3-(hydroxymethyl)pyridin-2-yl)-3,4,6,7,8,9-hexahydropyrazino[1,2-a]indol-1(2H)-one] | 0.0802 µM | –
3 | C[C@H]1CN(C2COC2)CCN1c1ccc(Nc2cc(-c3ccnc(N4CCn5c(cc6c5CCCC6)C4=O)c3CO)cn(C)c2=O)nc1 [Example 119, (S)-2-(3-(Hydroxymethyl)-4-(1-methyl-5-(5-(2-methyl-4-(oxetan-3-yl)piperazin-1-yl)pyridin-2-ylamino)-6-oxo-1,6-dihydropyridin-3-yl)pyridin-2-yl)-3,4,6,7,8,9-hexahydropyrazino[1,2-a]indol-1(2H)-one] | 0.0356 µM | –
4 | CN1CCn2nc(Nc3cc(-c4ccnc(N5CCc6c(cc7n6CCCC7)C5=O)c4CO)cn(C)c3=O)cc2C1 [Example 147, 2-(3-(Hydroxymethyl)-4-(1-methyl-5-(5-methyl-4,5,6,7-tetrahydro-pyrazolo[1,5-a]pyrazin-2-ylamino)-6-oxo-1,6-dihydropyridin-3-yl)pyridin-2-yl)-3,4,6,7,8,9-hexahydropyrido[3,4-b]indolizin-1(2H)-one] | 0.32 µM | –
5 | CC1c2cc(Nc3cc(-c4ccnc(N5CCn6c(cc7c6CCCC7)C5=O)c4CO)cn(C)c3=O)nn2CCN1C (stereo not drawn) [Example 287, 2-[4-[5-[(4,5-dimethyl-6,7-dihydro-4H-pyrazolo[1,5-a]pyrazin-2-yl)amino]-1-methyl-6-oxo-3-pyridyl]-3-(hydroxymethyl)-2-pyridyl]-3,4,6,7,8,9-hexahydropyrazino[1,2-a]indol-1-one] | – | 0.127 µM
6 | Cn1nc(-c2ccnc(N3CCn4c(cc5c4CC(C)(C)C5)C3=O)c2CO)cc(Nc2ccc(C(=O)N3CCOCC3)cn2)c1=O [Example 226, 3-[3-(hydroxymethyl)-4-[1-methyl-5-[[5-(morpholine-4-carbonyl)-2-pyridyl]amino]-6-oxo-pyridazin-3-yl]-2-pyridyl]-7,7-dimethyl-1,2,6,8-tetrahydrocyclopenta[3,4]pyrrolo[3,5-b]pyrazin-4-one] | – | 0.117 µM
7 | CN1CC(c2ccc(Nc3cc(-c4ccnc(N5CCc6c(cc7n6CCCC7)C5=O)c4CO)cn(C)c3=O)nc2)C1 [Example 244, 2-[3-(hydroxymethyl)-4-[1-methyl-5-[[5-(1-methylazetidin-3-yl)-2-pyridyl]amino]-6-oxo-3-pyridyl]-2-pyridyl]-3,4,6,7,8,9-hexahydropyrido[3,4-b]indolizin-1-one] | – | 0.138 µM
8 | C[C@H]1CN(C2COC2)CCN1c1ccc(Nc2cc(-c3ccnc(N4CCn5c6c(c(F)c5C4=O)CCCC6)c3CO)nn(C)c2=O)nc1 [Example 231, 10-fluoro-2-[3-(hydroxymethyl)-4-[1-methyl-5-[[5-[(2S)-2-methyl-4-(oxetan-3-yl)piperazin-1-yl]-2-pyridyl]amino]-6-oxo-pyridazin-3-yl]-2-pyridyl]-3,4,6,7,8,9-hexahydropyrazino[1,2-a]indol-1-one] | – | 0.0624 µM
9 | CN1CCn2nc(Nc3cc(-c4ccnc(N5CCc6c(c(F)c7n6CCCC7)C5=O)c4CO)cn(C)c3=O)cc2C1 [Example 241, 10-fluoro-2-[3-(hydroxymethyl)-4-[1-methyl-5-[(5-methyl-6,7-dihydro-4H-pyrazolo[1,5-a]pyrazin-2-yl)amino]-6-oxo-3-pyridyl]-2-pyridyl]-3,4,6,7,8,9-hexahydropyrido[3,4-b]indolizin-1-one] | – | 0.19 µM
